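A five-concentration, 48-hour dose response in 96-well plates underlies each endpoint, interpolated linearly between surrounding concentrations. GI50: concentration for 50% inhibition of growth.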 Calls of active or inactive are those of the source. No stated cut-off is given here; in the data, active = GI50 up to about 1.1 µM and inactive = higher.
Assays:
Assay in all cases: growth of human tumour cells (NCI), 48 h
[1] = tested on: SK-MEL-2
[2] = tested on: HOP-62
[3] = tested on: MDA-N
[4] = tested on: U-251
[5] = tested on: K562
[6] = tested on: SF-295
[7] = tested on: MDA-MB-231
[8] = tested on: A549
[9] = tested on: Malme-3M
[10] = tested on: A498
[11] = tested on: M14
[12] = tested on: SF-539
[13] = tested on: MDA-MB-435
[14] = tested on: SNB-19
[15] = tested on: PC-3
[16] = tested on: OVCAR-5
[17] = tested on: DU-145
[18] = tested on: HCT-116
[19] = tested on: ACHN
[20] = tested on: HCC 2998
[21] = tested on: SW-620
[22] = tested on: CAKI-1
[23] = tested on: RXF 393
[24] = tested on: T47D
[25] = tested on: NCI-H522
[26] = tested on: 786-0
[27] = tested on: NCI-H23
[28] = tested on: Hs-578T
[29] = tested on: IGROV-1
[30] = tested on: EKVX
[31] = tested on: SF-268
[32] = tested on: LOX IMVI
[33] = tested on: MOLT-4
[34] = tested on: SK-MEL-5
[35] = tested on: OVCAR-4
[36] = tested on: OVCAR-3
[37] = tested on: UO-31
[38] = tested on: UACC-257
[39] = tested on: NCI-H460
[40] = tested on: NCI/ADR-RES
[41] = tested on: SK-OV-3
[42] = tested on: RPMI-8226
[43] = tested on: HCT-15
[44] = tested on: TK-10
[45] = tested on: SR
[46] = tested on: OVCAR-8
[47] = tested on: SK-MEL-28
[48] = tested on: CCRF-CEM
[49] = tested on: HT-29
[50] = tested on: MCF7
[51] = tested on: HL-60
[52] = tested on: HOP-92
[53] = tested on: SNB-75

COC(=O)c1cc2c(c(C(=O)OC)c1)CCC2
GI50 [1]: > 100 µM (inactive) | GI50 [2]: > 100 µM (inactive) | GI50 [3]: > 100 µM (inactive) | GI50 [4]: > 100 µM (inactive) | GI50 [5]: 59 µM (inactive) | GI50 [6]: > 100 µM (inactive) | GI50 [7]: 82.8 µM (inactive) | GI50 [8]: > 100 µM (inactive) | GI50 [9]: > 100 µM (inactive) | GI50 [10]: 63.7 µM (inactive) | GI50 [11]: > 100 µM (inactive) | GI50 [12]: > 100 µM (inactive) | GI50 [13]: > 100 µM (inactive) | GI50 [14]: > 100 µM (inactive) | GI50 [15]: 68.5 µM (inactive) | GI50 [16]: > 100 µM (inactive) | GI50 [17]: > 100 µM (inactive) | GI50 [18]: 76.6 µM (inactive) | GI50 [19]: > 100 µM (inactive) | GI50 [20]: > 100 µM (inactive) | GI50 [21]: > 100 µM (inactive) | GI50 [22]: 20.7 µM (inactive) | GI50 [23]: 82.6 µM (inactive) | GI50 [24]: 63.5 µM (inactive) | GI50 [25]: 58.2 µM (inactive) | GI50 [26]: > 100 µM (inactive) | GI50 [27]: > 100 µM (inactive) | GI50 [28]: > 100 µM (inactive) | GI50 [29]: > 100 µM (inactive) | GI50 [30]: > 100 µM (inactive) | GI50 [31]: > 100 µM (inactive) | GI50 [32]: 82.4 µM (inactive) | GI50 [33]: 37.2 µM (inactive) | GI50 [34]: 56.1 µM (inactive) | GI50 [35]: > 100 µM (inactive) | GI50 [36]: 49.4 µM (inactive) | GI50 [37]: 85.7 µM (inactive) | GI50 [38]: > 100 µM (inactive) | GI50 [39]: > 100 µM (inactive) | GI50 [40]: 59.8 µM (inactive) | GI50 [41]: > 100 µM (inactive) | GI50 [42]: > 100 µM (inactive) | GI50 [43]: 63.1 µM | GI50 [44]: > 100 µM (inactive) | GI50 [45]: 30.3 µM (inactive) | GI50 [46]: > 100 µM (inactive) | GI50 [47]: > 100 µM (inactive) | GI50 [48]: 50.8 µM (inactive) | GI50 [49]: 40.6 µM (inactive) | GI50 [50]: > 100 µM (inactive) | GI50 [51]: 70.6 µM (inactive) | GI50 [52]: 49.9 µM (inactive) | GI50 [53]: 34.8 µM (inactive)

From ChEMBL document CHEMBL1201862, “PubChem BioAssay data set” (2004)
